Measurements taken from US5358936A, “Anionic furanose derivatives, methods of making and using the same” (Gordon; Paul, priority 1991, dated 1994).
Values joined by “and” are separate entries in the source; they are usually repeats but may differ in a detail not shown here. Equal values may be shown once.

What was measured:
[1] = system: rat stomachs; experiment: Gastric pathology following inflammatory stress and indomethacin, fed rats (Example 20); format: in vivo, male Sprague Dawley rats; conditions: stress + indomethacin 30 mg/kg oral; Compound III 50 mg/kg subcutaneously where given; 24 hours
Method: (§1) Stress was induced by the following procedure. On day one, under ether anesthesia, 18 male Sprague Dawley rats were injected with a suspension of Zymosan A (1 mg/ml in normal saline; Sigma Chemical Co.) in each hind paw. Swelling developed and persisted. This treatment generated activated blood complement locally (including the C5a moiety), which then spread by the bloodstream throughout the animal.
(§2) Twenty-four hours later all rat paws were reinjected, this time with 0.1 ml of proinflammatory zymosan-activated rat serum containing additional amounts of inflammatory complement fragment C5a (as in Example 23, hereinafter). Five hours later 30 mg/kg indomethacin in an aqueous suspension was given to nine such rats by oral garage. These rats also received a subcutaneous injection of 0.1 ml normal saline. Nine other such rats were given indomethacin as above, and Compound III (50 mg/kg in normal saline subcutaneously). Four additional rats, not stressed (normal) were given water by garage as a placebo and saline subcutaneously. All rats were fed ad libitum on standard diet.
Twenty-four hours later all animals were sacrificed by ether euthanasia. Their stomachs were washed with saline and evaluated for ulcer-related pathology using an illuminated magnifying glass. This assay is similar to that reported by Kinney et al., J. Med. Chem., 33:327 (1990).

[2] = system: rat stomachs; experiment: Gastric pathology following inflammatory stress and indomethacin, food-deprived rats (Example 21); format: in vivo
Method: as §1, §2
In contrast to the study of Example 20, above, in this study animals were food deprived for 24 hours before and also during the 24 hours following drug treatments. All animals were subjected to the inflammatory stress as described in Example 20. Eight such rats received 30 mg/kg indomethacin, and eight rats received indomethacin and Compound III (subcut., 50 mg/kg). Four rats, not stressed, were given placebo by garage.
All animals were sacrificed by ether euthanasia 24 hours later, and their stomachs evaluated for ulcer-related pathology.
In the stressed animals given indomethacin alone, pathology was much more severe than in Example 20. For scoring, therefore, the frequency of ulcers per rat stomach was quantified, and whether they were or were not bleeding.

[3] = system: stomach ulcers; experiment: Gastric ulcers in rats with corona virus infection treated with indomethacin (Example 26); format: in vivo, rat; conditions: indomethacin 30 mg/kg oral; cimetidine 25 mg/kg s.c. or Compound III 17.5 mg/kg s.c. where given; P<0.02
From the text: Corona virus is a non-lethal upper respiratory viral pathogen that not infrequently infects rat colonies. It is a type of rodent coryza or catarrh, the equivalent of a disease that falls somewhere between human influenza and a severe common cold. The animals of this study suffered from this condition, a circumstance which was evident by observation, and which was confirmed by virological diagnosis at the Biological Resources Laboratory of the University of Illinois at Chicago. Since stress is a common component of peptic ulcer development in both animals and man, it was concluded that this feature of the status of these experimental animals rendered them appropriate for an ulcer study.
In this study, animals were not food deprived and were divided into treatment groups such that 15 rats received 30 mg/kg indomethacin alone (in water by oral gavage), 14 rats received indomethacin plus an injection of 25 mg/kg cimetidine subcutaneously, and 7 rats received indomethacin plus subcutaneous injection of 17.5 mg/kg of Compound III.
All animals were sacrificed by ether euthanasia 24 hours later and their stomachs evaluated for ulcer pathology. In this study ulcers were not hemorrhagic. Results are shown below as the average number of stomach ulcers per stomach.

[4] = system: hind limbs; experiment: Hind-foot mobility in established adjuvant arthritis (Example 27); format: in vivo, Lewis rats; conditions: Compound III 50 mg/kg oral where given
From the text: Adjuvant arthritis was studied because it allows gaining of insight into effects of a drug in established and chronic inflammatory disease. Adjuvant arthritis shares certain features with rheumatoid arthritis but it is distinct. It is widely used in industry because it allows one to predict the potency of non-steroidal anti-inflammatory drugs (NSAID's) [Weichman, in Pharmaceutical Methods in the Control of Inflammation, Chang et al., eds.; Alan R. Liss, New York (1989) p. 362].
The rats used were of the Lewis strain, especially vulnerable to disease induction. Chronic polyarthritis was induced by the subcutaneous injection of complete Freund's adjuvant (CFA) into the rat tail. The CFA employed consists of 10 mg/ml heat-killed tubercle bacilli suspended in paraffin oil. An amount of 0.1 ml was injected, and the disease was allowed to develop over 14 days before daily assessments were made and treatments were initiated. Measurements that assess both increase in hind paw joint swelling and loss in hind limb function are taken.
Indomethacin was employed as a reference standard and given at 2 or 5 mg/kg. Treatment effects of Compound III, alone at 50 mg/kg given by oral gavage and in combination with indomethacin were assessed. Compound III was dissolved in water and indomethacin was suspended in water by homogenization. Both were administered sequentially by oral gavage.
Measurements by caliper include the lateral diameter of the ankle joint of each hind limb, and the dorsoventral diameter of the foot, just behind the toes. The prime measurement of function focusses on the fact that in many animals by day 14, and in most animals by day 16 after adjuvant administration, the arthritic rat can lose use of his hind limbs, which then are dragged behind him like logs. To quantify the recovery of function during treatment, a technique of Martel et al., Agents Actions, 15:403 (1984) was adapted. A blind assessment of the number of animals in each group that were able to draw their leg(s) under them and have these bear weight was carried out.

[5] = system: rat stomachs; experiment: Gastric pathology following inflammatory stress and indomethacin, fed rats (Example 20); design: species or system male Sprague Dawley rats; conditions: in vivo
[6] = system: rat paw; conditions: in vivo; cited from earlier work

Question: Which “Mean Pathology score” value [1] does the source give for `COc1ccc2c(c1)c(CC(=O)O)c(C)n2C(=O)c1ccc(Cl)cc1` [Indomethacin] here?
Answer: The value was 1.43.

Question: And the “Pathology score, individual rat” value [1]?
Answer: Its value is 0.5 and 1.0 and 0.0 and 4.0 and 7.0.

Question: What about the “bleeding ulcers in group” value ([2]; eight rats) of the same compound?
Answer: The value was 22.

Question: And the “total ulcers found in group” value ([2]; eight rats)?
Answer: The value was 23 ulcers.

Question: What about the “Bleeding Ulcer Frequency, Mn ± SE” value ([2]; indomethacin 30 mg/kg, Compound III 50 mg/kg subcut. where given, 24 hours, P<0.001 vs indomethacin alone) of the same compound?
Answer: The value was 2.65 ± 0.063 Per Rat.

Question: What about the “Total Ulcer Frequency, n ± SE” value ([2]; indomethacin 30 mg/kg, Compound III 50 mg/kg subcut. where given, 24 hours, P<0.01 vs indomethacin alone) of the same compound?
Answer: The value was 2.88 ± 0.67 Per Rat.

Question: And the “ulcers per affected rat” value ([2]; indomethacin: all eight rats, indomethacin + Compound III: only two rats)?
Answer: Its value is 1-5 ulcers.

Question: What about the “Ulcer Frequency per stomach, Mn ± SE” value [3] of the same compound?
Answer: The value was 2.53 ± 0.52 Per Stomach.

Question: What about the “Total Immobility - Percent” value ([4]; Day 0, indomethacin 2 mg/kg/day) of the same compound?
Answer: The value was 100%.

Question: What about the “Total Immobility - Percent” value ([4]; Day 0, indomethacin 5 mg/kg/day) of the same compound?
Answer: Its value is 100%.

Question: And the “Total Immobility - Percent” value ([4]; Day 1, indomethacin 2 mg/kg/day, p < 0.02)?
Answer: Its value is 67%.

Question: What about the “Total Immobility - Percent” value ([4]; Day 1, indomethacin 5 mg/kg/day, p < 0.01) of the same compound?
Answer: The value was 70%.

Question: And the “Total Immobility - Percent” value ([4]; Day 2, indomethacin 2 mg/kg/day, p < 0.01)?
Answer: Its value is 44%.

Question: And the “Total Immobility - Percent” value ([4]; Day 2, indomethacin 5 mg/kg/day)?
Answer: The value was 20%.

Question: And the “Total Immobility - Percent” value ([4]; Day 3, indomethacin 2 mg/kg/day)?
Answer: The value was 44%.

Question: And the “Total Immobility - Percent” value ([4]; Day 3, indomethacin 5 mg/kg/day, control 100 (12/12))?
Answer: The value was 10%.

Question: What about the “ulceration by indomethacin without stress” value [5] of the same compound?
Answer: The value was “induced no ulceration”.

Question: What about the “effect on edema that develops following removal of the tourniquet, in words” value [6] of the same compound?
Answer: The value was “not effective at any time”.
